Results from ChEMBL document CHEMBL1145219, “A new strategy to combat Alzheimer's disease. Combining radical-scavenging potential with metal-protein-attenuating ability in one molecule” (Bioorg Med Chem Lett, 2005).

Tested on: Cell line
Experiment: Radical-scavenging potency with metal-protein-attenuating ability in human was determined
Format: functional, cell-based

Row | Molecule | EC50 (Homo sapiens, Cell line) [µM] | EC50 (cell line) [µM]
1 | c1ccc2[nH]c(CN3CCNCCNCC3)nc2c1 | 0.9 | –
2 | N,N0-butylene bis-(2-acetylpyridine iminato) copper(II) | – | 0.56

More lines, now with the values ahead:

Row | EC50 (Homo sapiens, Cell line) [µM] | EC50 (cell line) [µM] | Molecule
3 | 0.76 | – | c1ccc2[nH]c(CN3CCNCCN(Cc4nc5ccccc5[nH]4)CC3)nc2c1
4 | – | 11 | N,N0-ethylene bis-(2-acetylpyridine iminato) copper(II)
5 | – | 2.33 | N,N0-propylene bis-(2-acetylpyridine iminato) copper(II)
